Measured values: article PMC10695737, “Crystal Modifications of a Cyclic Guanosine Phosphorothioate Analogue, a Drug Candidate for Retinal Neurodegenerations” (ChemistryOpen, 2023)
In brackets after ≈: the same amount, converted by molar mass.

Tests used:
Format in all cases: physicochemical
[1] = Polymorph screen, approximate solubility in solvents (UHPLC); conditions: thermodynamic from solid
Procedure: A polymorph screen was done for cGMPSA‐TEA with a similar approach. An excess of the compound was slurried in a range of solvents, typically 20–40 mg in 1 mL. For screens where enough solid material was obtained, it was analyzed by XRPD to record the crystal modification.

[2] = pH-dependent solubility in basic buffer NaOH(aq); conditions: 0.1 M NaOH(aq) basic buffer, aqueous buffer, thermodynamic from solid, pH 13, read-out: Solubility in 0.1M NaOH(aq), mg / mL (SD)
Procedure: (§1) The pH‐solubility profile of cGMPSA salts and free acid was determined by phase solubility techniques.[18] Briefly, saturated mixtures of the compound were prepared by adding excess amount to 4 mL vials containing 2 mL deionized water, an acidic buffer (0.1 M HCl(aq), pH 1), or a basic buffer (0.1 M NaOH(aq), pH 13). They were allowed to equilibrate for 24 h using mild agitation before recording the pH. The clear solution was separated from the solids by filtration with a Cytiva Whatman™ Mini‐Uniprep™ polypropylene 0.45 μm filter device and diluted to an appropriate analytical concentration where needed. The sample was then analyzed by HPLC, and the solubility determined by integrating the area of the peak of interest against a standard curve. The solids were also analyzed by XRPD to record the crystal modification obtained.

[3] = Phase solubility in deionized water (HPLC); conditions: for solubility at 24 h: deionized water, thermodynamic from solid
Procedure: as §1

[4] = pH-dependent solubility in acidic buffer 0.1 M HCl(aq); conditions: 0.1 M HCl(aq) acidic buffer, simulated gastric fluid, thermodynamic from solid, pH 1, read-out: Solubility in 0.1M HCl(aq), µg / mL (SD)
Procedure: as §1

[5] = Dynamic vapor sorption (DVS), water sorption as Δm; conditions: for Water sorption Δm: 25 °C
Procedure: The samples were analyzed at 25 °C with a Surface Measurements Systems DVS Advantage. A sample was weighted into a weighing pan and its mass was monitored while it was exposed to different relative humidities (%RH=%P/P0). Before the analysis, the weighing pan was subject to an antistatic program.
The analysis program consisted of two cycles. In each cycle, the relative humidity was increased stepwise up to 95 % RH (starting from 0 % RH, 9 steps with 10 % and one step with 5 %) and then decreased stepwise to 0 % RH again. In both sorption/desorption cycles, at each step, the sample was kept at the set relative humidity until dm/dt <0.002 %, over 15 min.

O=c1c2nc(Br)n(C3OC4COP(O)(=S)OC4C3O)c2nc2[nH]c(-c3ccccc3)cn12 (centres unmarked) [cGMPSA‐TEA]
solubility ([1]; aqueous with cosolvent or surfactant or cyclodextrin, solvent EtOH+H2O 1 : 1 v/v, solution): > 40000 µg/mL
solubility ([1]; aqueous with cosolvent or surfactant or cyclodextrin, solvent MeCN+H2O 1 : 1 v/v, solution): > 40000 µg/mL
solubility ([1]; aqueous with cosolvent or surfactant or cyclodextrin, solvent MeOH+H2O 1 : 1 v/v, solution): > 40000 µg/mL
solubility ([1]; aqueous with cosolvent or surfactant or cyclodextrin, solvent THF+H2O 1 : 1 v/v, solution): > 40000 µg/mL
solubility ([1]; organic solvent or mixture, solvent 2‐PrOH): 105 µg/mL (≈ 194 µM)
solubility ([1]; organic solvent or mixture, solvent Acetone): 285 µg/mL (≈ 527 µM)
solubility ([1]; organic solvent or mixture, solvent DMF, solution): > 40000 µg/mL
solubility ([1]; organic solvent or mixture, solvent DMSO, solution): > 40000 µg/mL
solubility ([1]; organic solvent or mixture, solvent Dichloromethane): 30 µg/mL (≈ 55.5 µM)
solubility ([1]; organic solvent or mixture, solvent Diethyl ether): 3 µg/mL (≈ 5.55 µM)
solubility ([1]; organic solvent or mixture, solvent Dimethoxyethane): 15 µg/mL (≈ 27.8 µM)
solubility ([1]; organic solvent or mixture, solvent Dioxane): 30 µg/mL (≈ 55.5 µM)
solubility ([1]; organic solvent or mixture, solvent EtOAc): 5 µg/mL (≈ 9.25 µM)
solubility ([1]; organic solvent or mixture, solvent EtOH): 1610 µg/mL (≈ 2980 µM)
solubility ([1]; organic solvent or mixture, solvent EtOH+THF 1 : 1 v/v, solution): > 40000 µg/mL
solubility ([1]; organic solvent or mixture, solvent MeCN): 114 µg/mL (≈ 211 µM)
solubility ([1]; organic solvent or mixture, solvent MeOH): 40 µg/mL (≈ 74 µM)
solubility ([1]; organic solvent or mixture, solvent MeTHF): 10 µg/mL (≈ 18.5 µM)
solubility ([1]; organic solvent or mixture, solvent THF): 28 µg/mL (≈ 51.8 µM)
solubility ([1]; organic solvent or mixture, solvent i‐PrOAc): 10 µg/mL (≈ 18.5 µM)
solubility ([1]; organic solvent or mixture, solvent n‐BuOH): 210 µg/mL (≈ 389 µM)
solubility at 24 h [2]: 51600 µg/mL (≈ 95500 µM)
pH of mixture ([3]; aqueous solubility measurements, supplement): 4,38
pH at saturation solubility ([3]; deionized H2O, quadruplicates): 4.4 (±0.4)
solubility at 24 h ([3]; pH 4.38, water, supplement, read-out: Aqueous solubility measurements): 8900 µg/mL (≈ 16500 µM)
solubility at 24 h ([3]; pH 4.4, water, deionized H2O, quadruplicates, read-out: Solubility): 8800 µg/mL (≈ 16300 µM)
solubility at 24 h [4]: 5 µg/mL (≈ 9.25 µM)
Water sorption Δm ([5]; 0 % RH, after final desorption cycle 2 (D2)): −1.0%
Water sorption Δm ([5]; 30 % RH, desorption cycle 2 (D2)): 3.5%
Water sorption Δm ([5]; 30 % RH, sorption cycle 1 (S1)): 3.4%
Water sorption Δm ([5]; 60 % RH, desorption cycle 2 (D2)): 4.8%
Water sorption Δm ([5]; 60 % RH, sorption cycle 1 (S1)): 4.0%
Water sorption Δm ([5]; 95 % RH, desorption cycle 2 (D2)): 5.2%
Water sorption Δm ([5]; 95 % RH, sorption cycle 1 (S1)): 5.0%
change in mass (Δm) ([5]; at 95 % relative humidity (maximum RH), stated in text): about 5%
